Legend:
[1] = target: T1, recombinant BACE1 protein (Homo sapiens, UniProt P56817); assay: BACE1 biochemical FRET based assay; details: for Selectivity: BACE2 IC50 relative to BACE1 IC50; for IC50: FRET, pH 5.0, 450 min at room temperature
T1 construct: recombinant BACE1 protein in a final concentration of 0.04 μg/mL
Excerpt: (§1) This assay is a Fluorescence Resonance Energy Transfer Assay (FRET) based assay. The substrate for this assay is an APP derived 13 amino acids peptide that contains the ‘Swedish’ Lys-Met/Asn-Leu mutation of the amyloid precursor protein (APP) beta-site secretase cleavage site. This substrate also contains two fluorophores: (7-methoxycoumarin-4-yl) acetic acid (Mca) is a fluorescent donor with excitation wavelength at 320 nm and emission at 405 nm and 2,4-dinitrophenol (Dnp) is a proprietary quencher acceptor. […] Upon cleavage by BACE1, the fluorophore Mca is separated from the quenching group Dnp, restoring the full fluorescence yield of the donor. The increase in fluorescence is linearly related to the rate of proteolysis.
Briefly in a 384-well format recombinant BACE1 protein in a final concentration of 0.04 μg/mL was incubated for 450 minutes at room temperature with 10 μm substrate in incubation buffer (final concentrations: 33.3 mM Citrate buffer pH 5.0, 0.033% PEG, 3% DMSO) in the absence or presence of compound. Next the amount of proteolysis was directly measured by fluorescence measurement at T=0′-120′ and T=450′ (excitation at 320 nm and emission at 405 nm). Results were expressed in RFU (Relative Fluorescence Units), as difference between T450 and Tx (Tx is chosen depending on the reaction speed between 0 and 120 minutes).
(§2) A best-fit curve was fitted by a minimum sum of squares method to the plot of % Controlmin versus compound concentration. From this an IC50 value (inhibitory concentration causing 50% inhibition of activity) can be obtained.

[2] = target: T2, recombinant BACE2 protein (Homo sapiens, UniProt Q9Y5Z0); assay: BACE2 biochemical FRET based assay; details: pH 5.0, 450 min at room temperature
T2 construct: recombinant BACE2 protein in a final concentration of 0.4 μg/mL
T2 sequence (Q9Y5Z0 63-518): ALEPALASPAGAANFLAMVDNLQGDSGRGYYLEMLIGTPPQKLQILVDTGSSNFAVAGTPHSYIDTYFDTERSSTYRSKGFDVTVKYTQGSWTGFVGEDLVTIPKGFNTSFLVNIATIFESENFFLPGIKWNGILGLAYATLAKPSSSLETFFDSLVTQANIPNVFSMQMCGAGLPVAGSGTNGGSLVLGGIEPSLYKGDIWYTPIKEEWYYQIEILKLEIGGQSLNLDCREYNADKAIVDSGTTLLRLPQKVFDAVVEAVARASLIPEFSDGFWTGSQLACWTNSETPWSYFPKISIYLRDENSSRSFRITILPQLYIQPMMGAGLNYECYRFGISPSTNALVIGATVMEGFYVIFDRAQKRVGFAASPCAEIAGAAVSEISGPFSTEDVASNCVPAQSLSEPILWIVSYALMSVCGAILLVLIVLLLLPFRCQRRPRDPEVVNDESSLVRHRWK
Excerpt: as §1, with “assay” for “assay is an APP derived 13 amino acids peptide that”, “beta-secretase” for “beta-site secretase”, “the beta-secretase,” for “BACE1,”
Briefly in a 384-well format recombinant BACE2 protein in a final concentration of 0.4 μg/mL was incubated for 450 minutes at room temperature with 10 μM substrate in incubation buffer (final concentrations: 33.3 mM Citrate buffer pH 5.0, 0.033% PEG, 2% DMSO) in the absence or presence of compound. Next the amount of proteolysis was directly measured by fluorescence measurement at T=0 and T=450 (excitation at 320 nm and emission at 405 nm). Results were expressed in RFU (Relative Fluorescence Units), as difference between T450 and T0.
as §2

Metabolic stability test = format: in vitro ADME; details: human liver microsomes 0.5 mg protein/mL, NADPH, 37° C.
Procedure: Using a commercially available pooled human liver microsomes, a compound of the present invention was reacted for a constant time, a remaining rate was calculated by comparing a reacted sample and an unreacted sample, thereby, a degree of metabolism in liver was assessed.
A reaction was performed (oxidative reaction) at 37° C. for 0 minute or 30 minutes in the presence of 1 mmol/L NADPH in 0.2 mL of a buffer (50 mmol/L Tris-HCl pH 7.4, 150 mmol/L potassium chloride, 10 mmol/L magnesium chloride) containing 0.5 mg protein/mL of human liver microsomes. After the reaction, 50 μL of the reaction solution was added to 100 μL of a methanol/acetonitrile=1/1 (v/v), mixed and centrifuged at 3000 rpm for 15 minutes. The compound of the present invention in the supernatant was quantified by LC/MS/MS or solid phase extraction (SPE)/MS, and a remaining amount of the compound of the present invention after the reaction was calculated, letting a compound amount at 0 minute reaction time to be 100%.

[3] = target: T3, human ether-a-go-go related gene (hERG) channel (Homo sapiens, UniProt Q12809); assay: hERG test (whole cell patch clamp, QPatch); format: cell-based; details: CHO cells expressing hERG, tail peak current
T3 construct: expressed in transfected cells; host or cells: CHO cells
T3 sequence (Q12809 whole entry): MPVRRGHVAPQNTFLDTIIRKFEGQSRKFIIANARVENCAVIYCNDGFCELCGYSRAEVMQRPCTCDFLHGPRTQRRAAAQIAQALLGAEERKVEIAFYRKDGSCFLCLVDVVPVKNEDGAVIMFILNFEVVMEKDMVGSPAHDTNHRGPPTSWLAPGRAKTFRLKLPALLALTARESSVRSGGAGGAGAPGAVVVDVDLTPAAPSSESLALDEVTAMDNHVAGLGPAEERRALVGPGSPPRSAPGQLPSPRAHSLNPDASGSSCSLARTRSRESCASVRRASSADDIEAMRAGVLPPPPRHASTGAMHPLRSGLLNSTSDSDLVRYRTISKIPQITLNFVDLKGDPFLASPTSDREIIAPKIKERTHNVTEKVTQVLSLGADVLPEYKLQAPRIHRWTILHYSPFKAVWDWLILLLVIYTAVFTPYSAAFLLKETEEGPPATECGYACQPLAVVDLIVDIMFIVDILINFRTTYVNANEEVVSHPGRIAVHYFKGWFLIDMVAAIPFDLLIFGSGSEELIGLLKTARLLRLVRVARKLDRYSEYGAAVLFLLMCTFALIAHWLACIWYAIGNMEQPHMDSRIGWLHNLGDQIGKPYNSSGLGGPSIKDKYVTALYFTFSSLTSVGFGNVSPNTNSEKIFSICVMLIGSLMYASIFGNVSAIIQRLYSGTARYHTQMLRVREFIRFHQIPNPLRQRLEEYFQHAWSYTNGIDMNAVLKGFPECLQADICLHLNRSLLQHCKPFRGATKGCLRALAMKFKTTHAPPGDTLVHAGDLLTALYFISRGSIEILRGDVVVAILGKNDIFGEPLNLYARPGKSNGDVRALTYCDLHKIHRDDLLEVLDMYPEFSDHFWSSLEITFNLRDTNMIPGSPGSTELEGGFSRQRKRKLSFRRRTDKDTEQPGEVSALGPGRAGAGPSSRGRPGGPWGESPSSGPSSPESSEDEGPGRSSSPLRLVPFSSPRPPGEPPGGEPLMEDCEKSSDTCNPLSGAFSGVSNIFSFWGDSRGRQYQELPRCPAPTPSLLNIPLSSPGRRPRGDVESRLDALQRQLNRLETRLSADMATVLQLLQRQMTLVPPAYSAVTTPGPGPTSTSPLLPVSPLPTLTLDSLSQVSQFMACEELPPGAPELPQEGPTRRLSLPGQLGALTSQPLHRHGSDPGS
Excerpt: For the purpose of assessing risk of an electrocardiogram QT interval prolongation, effects on delayed rectifier K+ current (IKr), which plays an important role in the ventricular repolarization process of the compound of the present invention, was studied using CHO cells expressing human ether-a-go-go related gene (hERG) channel.
A cell was retained at a membrane potential of −80 mV by whole cell patch clamp method using an automated patch clamp system (QPatch; Sophion Bioscience A/S). After application of leak potential at −50 mV, IKr induced by depolarization pulse stimulation at +20 mV for 2 seconds and, further, repolarization pulse stimulation at −50 mV for 2 seconds was recorded.
After the generated current was stabilized, extracellular solution (NaCl: 145 mmol/L, KCl: 4 mmol/L, CaCl2:2 mmol/L MgCl2:1 mmol/L, 1 mmol/L, HEPES (4-(2-hydroxyethyl)-1-piperazineethanesulfonic acid: 10 mmol/L, glucose:10 mmol/L pH=7.4) in which the compound of the present invention have been dissolved at an objective concentration was applied to the cell under the room temperature condition for 10 minutes. From the recording IKr, an absolute value of the tail peak current was measured based on the current value at the resting membrane potential using an analysis software (QPatch assay software; Sophion Bioscience A/S). Further, the % inhibition relative to the tail peak current before application of the compound of the present invention was calculated, and compared with the vehicle-applied group (0.1% dimethyl sulfoxide solution) to assess influence of the compound of the present invention on IKr.

[4] = target: T4, P-gp (MDR1 expressing LLC-PK1 cells) (Homo sapiens, UniProt P08183); assay: P-gp substrate test; format: in vitro ADME; details: MDR1 expressing LLC-PK1 cells vs parent LLC-PK1 cells
T4 construct: host or cells: LLC-PK1 (porcine kidney) cells
T4 sequence (P08183 whole entry): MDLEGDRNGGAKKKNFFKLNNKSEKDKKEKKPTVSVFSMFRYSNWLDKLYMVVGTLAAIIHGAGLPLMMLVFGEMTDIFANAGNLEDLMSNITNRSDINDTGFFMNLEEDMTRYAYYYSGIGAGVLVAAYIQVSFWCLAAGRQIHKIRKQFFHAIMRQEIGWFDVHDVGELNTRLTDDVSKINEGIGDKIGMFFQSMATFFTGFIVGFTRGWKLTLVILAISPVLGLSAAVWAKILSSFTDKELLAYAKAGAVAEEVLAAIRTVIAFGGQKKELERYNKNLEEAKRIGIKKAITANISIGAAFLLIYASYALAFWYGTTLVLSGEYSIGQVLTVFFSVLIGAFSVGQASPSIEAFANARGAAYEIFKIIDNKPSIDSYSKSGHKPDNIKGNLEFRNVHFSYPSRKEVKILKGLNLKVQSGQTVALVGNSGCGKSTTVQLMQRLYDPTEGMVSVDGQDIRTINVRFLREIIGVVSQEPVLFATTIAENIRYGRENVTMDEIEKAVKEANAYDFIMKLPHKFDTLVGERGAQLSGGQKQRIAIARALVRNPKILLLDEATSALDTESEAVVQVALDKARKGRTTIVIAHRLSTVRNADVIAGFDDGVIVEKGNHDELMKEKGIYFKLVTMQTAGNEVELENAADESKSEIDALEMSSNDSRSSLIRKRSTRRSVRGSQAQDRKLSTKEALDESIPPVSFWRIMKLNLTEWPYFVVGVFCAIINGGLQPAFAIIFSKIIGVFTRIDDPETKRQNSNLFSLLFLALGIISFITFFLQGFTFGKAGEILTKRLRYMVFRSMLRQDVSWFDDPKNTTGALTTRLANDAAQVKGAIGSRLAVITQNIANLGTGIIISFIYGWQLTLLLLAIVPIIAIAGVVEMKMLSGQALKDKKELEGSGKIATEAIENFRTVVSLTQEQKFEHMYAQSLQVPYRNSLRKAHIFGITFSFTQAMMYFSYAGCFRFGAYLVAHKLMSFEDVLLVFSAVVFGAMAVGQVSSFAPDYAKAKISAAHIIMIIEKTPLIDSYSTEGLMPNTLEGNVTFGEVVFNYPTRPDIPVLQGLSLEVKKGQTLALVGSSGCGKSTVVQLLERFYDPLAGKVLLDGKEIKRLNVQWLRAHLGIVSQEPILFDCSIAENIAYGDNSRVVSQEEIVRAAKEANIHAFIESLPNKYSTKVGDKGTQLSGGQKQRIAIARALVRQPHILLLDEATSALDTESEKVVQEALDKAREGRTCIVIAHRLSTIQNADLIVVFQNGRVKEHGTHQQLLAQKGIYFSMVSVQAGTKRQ
Procedure: 1. MDR1 expressing LLC-PK1 cells and its parent cells were routinely cultured in Medium A (Medium 199 (Invitrogen) supplemented with 10% FBS (Invitrogen), gentamycin (0.05 mg/mL, Invitrogen) and hygromycin B (100 μg/mL, Invitrogen)) at 37° C. under 5% CO2/95% 02 gasses. For the transport experiments, these cells were seeded on Transwell (Registered trademark) insert (96-well, pore size: 0.4 μm, Coaster) at a density of 1.4×10^4 cells/insert and added Medium B (Medium 199 supplemented with 10% FBS and gentamycin at 0.05 mg/mL) to the feeder tray. These cells were incubated in a CO2 incubator (5% CO2/95% 02 gasses, 37° C.) and replace apical and basolateral culture medium every 48-72 hr after seeding. These cells were used between 4 and 6 days after seeding. 2. The medium in the culture insert seeded with MDR1 expressing cells or parent cells were removed by aspiration and rinsed by HBSS. The apical side (140 μL) or basolateral side (175 μL) was replaced with transport buffer containing reference substrates and the present invention and then an aliquot (50 μL) of transport buffer in the donor side was collected to estimate initial concentration of reference substrate and the present invention. After incubation for designed time at 37° C., an aliquot (50 μL) of transport buffer in the donor and receiver side were collected. Assay was performed by duplicate or triplicate. 3. Reference substrate and the present invention in the aliquot was quantified by LC/MS/MS.
Permeated amounts across monolayers of MDR1 expressing and parent cells were determined, and permeation coefficients (Pe) were calculated using Excel 2003 from the following equitation:
Pe (cm/sec)=Permeated amount (pmol)/area of cell membrane (cm^2)/initial concentration (nM)/incubation time (sec) Where, permeated amount was calculated from permeation concentration (nM, concentration of the receiver side) of the substance after incubation for the defined time (sec) multiplied by volume. (mL) and area of cell membrane was used 0.1433 (cm2). The efflux ratio was calculated using the following equation:
Efflux Ratio=Basolateral-to-Apical Pe/Apical-to-Basolateral Pe
The net flux was calculated using the following equation:
Net flux=Efflux Ratio in MDR1 expressing cells/Efflux Ratio in parent cells

T1 sequence (P56817 46-501): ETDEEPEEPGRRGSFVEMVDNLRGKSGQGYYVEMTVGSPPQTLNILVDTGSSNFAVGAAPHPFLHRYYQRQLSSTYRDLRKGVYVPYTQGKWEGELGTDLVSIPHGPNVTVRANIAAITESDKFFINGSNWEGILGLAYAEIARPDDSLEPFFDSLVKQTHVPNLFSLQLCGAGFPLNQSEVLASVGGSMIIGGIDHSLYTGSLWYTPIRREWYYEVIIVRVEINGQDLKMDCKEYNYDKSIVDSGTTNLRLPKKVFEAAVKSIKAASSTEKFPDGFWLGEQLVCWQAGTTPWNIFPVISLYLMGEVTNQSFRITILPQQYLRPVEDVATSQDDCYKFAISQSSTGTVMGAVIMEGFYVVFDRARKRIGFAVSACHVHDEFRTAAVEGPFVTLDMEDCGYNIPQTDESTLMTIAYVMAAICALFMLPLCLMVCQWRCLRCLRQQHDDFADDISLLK

For `C[C@H]1OC[C@H]2[C@@H]1OC(N)=N[C@]2(CF)c1cc(NC(=O)c2cnc(-n3cncn3)cn2)ccc1F` [Compound I-051], the Selectivity [1] was 63.1, the IC50 [1] was 5.01 nM and the IC50 [2] was 316 nM.
In the case of `NC1=N[C@](CF)(c2cc(NC(=O)c3cnc(OCF)cn3)ccc2F)[C@H]2[C@H](CCF)OC[C@H]2O1` [Compound I-115], the “Remaining rate (%) at 30 min” value (Metabolic stability test) is reported as 93%, the “hERG inhibition (%) at 3 μM” value [3] is reported as 9.9% and the “P-gp ER ratio” value [4] is reported as 3.
For `C[C@@H](F)COc1cnc(C(=O)Nc2ccc(F)c([C@@]3(C)N=C(N)O[C@@H]4CO[C@@H](C(F)(F)F)[C@@H]43)c2)cn1` [Compound I-030], the Selectivity [1] was 151, the IC50 [1] was 66.1 nM and the IC50 [2] was 10000 nM.
With `C[C@]1(c2cc(NC(=O)c3ccc(C#N)cn3)ccc2F)N=C(N)O[C@@H]2CO[C@@H](C(F)(F)F)[C@@H]21` [Compound I-016] the Selectivity [1] was 62.3, the IC50 [1] was 5.7 nM and the IC50 [2] was 355 nM.
For `C[C@]1(c2cc(NC(=O)c3cnc(OCF)cn3)ccc2F)N=C(N)O[C@@H]2CO[C@@H](CCF)[C@@H]21` [Compound I-021], the Selectivity [1] was 37.1, the IC50 [1] was 8.51 nM and the IC50 [2] was 316 nM.
Work on `C[C@]1(c2cc(NC(=O)c3cnc(OCF)cn3)ccc2F)N=C(N)O[C@@H]2CO[C@@H](C(F)F)[C@@H]21` [Compound I-022] yielded a Selectivity [1] of 27.5, an IC50 [1] of 24 nM and an IC50 [2] of 661 nM.
For `Cc1noc(C)c1[C@@H]1OC[C@H]2OC(N)=N[C@](C)(c3cc(NC(=O)c4cnc(OCF)cn4)ccc3F)[C@H]21` [Compound I-031], the Selectivity [1] was 282, the IC50 [1] was 12 nM and the IC50 [2] was 3390 nM.
In the case of `C[C@H]1OC[C@H]2[C@@H]1OC(N)=N[C@]2(CF)c1cc(NC(=O)c2cnc(OCF)cn2)cc(F)c1F` [Compound I-070], the “Remaining rate (%) at 30 min” value (Metabolic stability test) is reported as 52%, the “hERG inhibition (%) at 3 μM” value [3] is reported as 9.4% and the “P-gp ER ratio” value [4] is reported as 3.8.
`C[C@]1(c2cc(NC(=O)c3cnc(OCF)cn3)ccc2F)N=C(N)O[C@@H]2CO[C@@H](CC(F)F)[C@@H]21` [Compound I-019] showed a Selectivity [1] of 60.2, an IC50 [1] of 4.07 nM and an IC50 [2] of 245 nM.
Molecule `CC(C)CCC[C@@H]1OC[C@H]2OC(N)=N[C@](C)(c3cc(NC(=O)c4cnc(OCF)cn4)ccc3F)[C@@H]12` [Compound I-025] has a Selectivity [1] of 9.3, an IC50 [1] of 1.26 nM and an IC50 [2] of 11.7 nM.
Work on `NC1=N[C@](CF)(c2cc(NC(=O)c3cnc(OCF)cn3)ccc2F)[C@@H]2COCC[C@H]2O1` [II-017] yielded a Selectivity [1] of 23.4, an IC50 [1] of 7.6 nM and an IC50 [2] of 178 nM.
For `Cn1cc([C@@H]2OC[C@H]3OC(N)=N[C@](C)(c4cc(NC(=O)c5cnc(OCF)cn5)ccc4F)[C@H]32)cn1` [Compound I-014], the Selectivity [1] was 223, the IC50 [1] was 44.7 nM and the IC50 [2] was 10000 nM.
`CC(C)C[C@@H]1OC[C@H]2OC(N)=N[C@](C)(c3cc(NC(=O)c4cnc(OCF)cn4)ccc3F)[C@@H]12` [Compound I-028] gave a Selectivity [1] of 87.1, an IC50 [1] of 6.76 nM and an IC50 [2] of 589 nM.
`CC[C@@H]1OC[C@H]2OC(N)=N[C@](C)(c3cc(NC(=O)c4cnc(OCF)cn4)ccc3F)[C@@H]12` [Compound I-023] gave a Selectivity [1] of 51.2, an IC50 [1] of 4.79 nM and an IC50 [2] of 245 nM.
For `C[C@]1(c2cc(NC(=O)c3ccc(C#N)cn3)ccc2F)N=C(N)O[C@@H]2CO[C@@H](CCF)[C@@H]21` [Compound I-020], the Selectivity [1] was 21.4, the IC50 [1] was 2.19 nM and the IC50 [2] was 46.8 nM.
With `C[C@]1(c2cc(NC(=O)c3ccc(C#N)cn3)ccc2F)N=C(N)O[C@@H]2CO[C@@H](CC(F)F)[C@@H]21` [Compound I-018] the Selectivity [1] was 38.1, the IC50 [1] was 1.2 nM and the IC50 [2] was 45.7 nM.
With `CC(C)C[C@@H]1OC[C@H]2OC(N)=N[C@](C)(c3cc(NC(=O)c4cnc(OC[C@@H](C)F)cn4)ccc3F)[C@@H]12` [Compound I-029] the Selectivity [1] was 191, the IC50 [1] was 22.9 nM and the IC50 [2] was 4370 nM.

— patent US20210261569A1, “FUSED HETEROCYCLIC DERIVATIVES HAVING SELECTIVE BACE1 INHIBITORY ACTIVITY” (Shionogi & Co., Ltd., priority 2018, published 2021)
